How the values were obtained:
[1] = Inhibition of recombinant rat/human ADAMTS12 hybrid using HiLyteFluor-488 DELSSMVLELRGLRT-K(QXL520)-E-NH2 as substrate incubated for 120 mins and measured by FRET assay
[2] = Inhibition of recombinant rat/human ADAMTS7 hybrid using HiLyteFluor-488 DELSSMVLELRGLRT-K(QXL520)-E-NH2 as substrate incubated for 120 mins and measured by FRET assay

| Structure (SMILES) | IC50 [1] [nM] | IC50 [2] [nM] |
| --- | --- | --- |
| O=C1NC(=O)[C@](CNC(=O)c2cnn(-c3ccc(Cl)cc3F)n2)(C2CC2)N1 | 1000 | 60 |
| O=C1NC(=O)[C@](CNC(=O)c2cnn(-c3ncc(F)cc3F)n2)(C2CC2)N1 | 6200 | 190 |
| O=C1NC(=O)[C@](CNC(=O)c2cnn(-c3ccc(F)cc3Cl)n2)(C2CC2)N1 | 17000 | 320 |
| O=C1NC(=O)C(CNC(=O)c2cnn(-c3ccc(F)cc3)n2)(c2cscn2)N1 (configuration not stated) | 2500 | 12 |
| Cn1ccnc1C1(CNC(=O)c2cnn(-c3ccc(F)c(F)c3)n2)NC(=O)NC1=O (configuration not stated) | 46 | 3 |
| O=C1NC(=O)[C@](CNC(=O)c2cnn(-c3ccc(Cl)cc3Cl)n2)(C2CC2)N1 | 7100 | 130 |
| Cn1ccnc1C1(CNC(=O)c2cnn(-c3ccc(Cl)c(F)c3)n2)NC(=O)NC1=O (configuration not stated) | 41 | 2 |
| O=C1NC(=O)C(CNC(=O)c2cnn(-c3ccccc3)n2)(c2ccncc2)N1 (racemic) | 2800 | 20 |
| CCC1(CNC(=O)c2cnn(-c3ccc(F)cc3)n2)NC(=O)NC1=O (racemic) | 13000 | 200 |
| CCC(C)C1(CNC(=O)c2cnn(-c3ccc(F)cc3)n2)NC(=O)NC1=O (racemic) | 2200 | 10 |
| O=C1NC(=O)C(CNC(=O)c2cnn(-c3ccccc3)n2)(C2CCC2)N1 (racemic) | 14000 | 55 |
| O=C1NC(=O)C(CNC(=O)c2cnn(-c3ccc(F)cc3)n2)(c2ccccc2)N1 (racemic) | > 50000 | 69 |
| O=C1NC(=O)C(CNC(=O)c2cnn(-c3ccccc3)n2)(C2CCOCC2)N1 (racemic) | 9950 | 128 |
| Cc1nc(C2(CNC(=O)c3cnn(-c4ccc(F)cc4)n3)NC(=O)NC2=O)c(C)s1 (racemic) | 2800 | 100 |
| O=C1NC(=O)C(CNC(=O)c2cnn(-c3ccccc3)n2)(c2ccccn2)N1 (racemic) | 4800 | 26 |
| CCCCC1(CNC(=O)c2cnn(-c3ccc(F)cc3)n2)NC(=O)NC1=O (racemic) | 8300 | 120 |
| CCCCC1(CNC(=O)c2cnn(-c3ccccc3)n2)NC(=O)NC1=O (racemic) | 15000 | 89 |
| CC(C)C1(CNC(=O)c2cnn(-c3cc(F)c(F)c(F)c3)n2)NC(=O)NC1=O (racemic) | 6000 | 52 |
| Cn1ccnc1C1(CNC(=O)c2cnn(-c3ccccc3)n2)NC(=O)NC1=O (racemic) | 360 | 4 |
| O=C1NC(=O)C(CNC(=O)c2cnn(-c3ccc(F)cc3)n2)(C2CCC2)N1 (racemic) | 35000 | 98 |
| CC(C)C1(CNC(=O)c2cnn(-c3cccc(C#N)c3)n2)NC(=O)NC1=O (racemic) | 6000 | 170 |
| Cn1ccnc1C1(CNC(=O)c2cnn(-c3ccc(F)cc3)n2)NC(=O)NC1=O (racemic) | 320 | 4 |
| CC(C)C1(CNC(=O)c2cnn(-c3ccccc3)n2)NC(=O)NC1=O (racemic) | 14500 | 265 |
| O=C1NC(=O)C(CNC(=O)c2cnn(-c3ccc(F)cc3)n2)(C2(Cl)CC2)N1 (racemic) | 3700 | 74 |

| Structure (SMILES) | IC50 [1] [nM] | IC50 [2] [nM] |
| --- | --- | --- |
| O=C1NC(=O)C(CNC(=O)c2cnn(-c3ccc(F)c(Cl)c3)n2)(c2nccs2)N1 (racemic) | 1200 | 35 |
| CC(C)(C)C1(CNC(=O)c2cnn(-c3ccc(F)cc3)n2)NC(=O)NC1=O (racemic) | 6000 | 69 |
| CCn1nccc1C1(CNC(=O)c2cnn(-c3ccc(F)cc3)n2)NC(=O)NC1=O (racemic) | 2800 | 14 |
| O=C1NC(=O)C(CNC(=O)c2cnn(-c3ccc(Cl)c(F)c3)n2)(c2nccs2)N1 (racemic) | 1100 | 19 |
| Cc1scnc1C1(CNC(=O)c2cnn(-c3ccc(F)cc3)n2)NC(=O)NC1=O (racemic) | 680 | 8 |
| O=C1NC(=O)C(CNC(=O)c2cnn(-c3ccc(F)cc3)n2)(c2nccs2)N1 (racemic) | 2400 | 39 |
| CC(C)(C)C1(CNC(=O)c2cnn(-c3ccc(C(F)(F)F)c(F)c3)n2)NC(=O)NC1=O (racemic) | 50000 | 210 |
| O=C1NC(=O)C(CNC(=O)c2cnn(-c3cccc(F)c3)n2)(c2nccs2)N1 (racemic) | 600 | 12 |
| CC(C)(C)C1(CNC(=O)c2cnn(-c3ccc(C(F)(F)F)cc3)n2)NC(=O)NC1=O (racemic) | 50000 | 620 |
| CC(C)(C)C1(CNC(=O)c2cnn(-c3cccc(F)c3)n2)NC(=O)NC1=O (racemic) | 6600 | 260 |
| CC(C)C1(CNC(=O)c2cnn(-c3ccc(F)c(F)c3)n2)NC(=O)NC1=O (racemic) | 2500 | 11 |
| O=C1NC(=O)C(CNC(=O)c2cnn(-c3ccc(F)cc3)n2)(c2ncsc2C(F)(F)F)N1 (racemic) | 6600 | 48 |
| CC(C)(C)C1(CNC(=O)c2cnc(-c3ccccc3)o2)NC(=O)NC1=O (racemic) | 50000 | 480 |
| CC(C)C1(CNC(=O)c2cnn(-c3ccc(Cl)c(F)c3)n2)NC(=O)NC1=O (racemic) | 2800 | 13 |
| CC(C)C1(CNC(=O)c2cnn(-c3ccc(F)cc3F)n2)NC(=O)NC1=O (racemic) | 20000 | 98 |
| CC(C)C1(CNC(=O)c2cnn(-c3cccc(F)c3)n2)NC(=O)NC1=O (racemic) | 4500 | 46 |
| O=C1NC(=O)C(CNC(=O)c2cnn(-c3ccccc3)n2)(C2CCCOC2)N1 (racemic) | 8500 | 62 |
| O=C1NC(=O)C(CNC(=O)c2cnn(-c3ccc(F)cc3)n2)(CC2CC2)N1 (racemic) | 50000 | 240 |
| Cn1ccnc1C1(CNC(=O)c2cnn(-c3cc(F)c(F)c(F)c3)n2)NC(=O)NC1=O (racemic) | 200 | 5 |
| CC1(CNC(=O)c2cnn(-c3ccc(F)cc3)n2)NC(=O)NC1=O (racemic) | 5000 | 560 |
| O=C1NC(=O)C(CNC(=O)c2cnn(-c3ccc(F)cc3)n2)(c2ccccn2)N1 (racemic) | 3000 | 10 |
| O=C1NC(=O)C(CNC(=O)c2cnn(-c3ccccc3)n2)(C2CCCCC2)N1 (racemic) | 50000 | 145 |
| O=C1NC(=O)C(CNC(=O)c2cnn(-c3ccc(F)cc3)n2)(C2CCCC2)N1 (racemic) | 50000 | 380 |
| O=C1NC(=O)C(CNC(=O)c2cnn(-c3ccc(F)cc3)n2)(c2ccnn2C(F)F)N1 (racemic) | 2400 | 29 |

| Structure (SMILES) | IC50 [1] [nM] | IC50 [2] [nM] |
| --- | --- | --- |
| O=C1NC(=O)C(CNC(=O)c2cnn(-c3ccc(F)cc3)n2)(C2CCOCC2)N1 (racemic) | 9300 | 260 |
| O=C1NC(=O)C(CNC(=O)c2cnn(-c3ccc(F)cc3)n2)(c2ccnn2CC(F)(F)F)N1 (racemic) | 3200 | 50 |
| O=C1NC(=O)C(CNC(=O)c2cnn(-c3ccccc3)n2)(C2CCCC2)N1 (racemic) | 50000 | 191 |
| CC(C)(C)C1(CNC(=O)c2cnn(-c3ccccc3)n2)NC(=O)NC1=O (racemic) | 15000 | 70 |
| CC(C)C1(CNC(=O)c2cnn(-c3ccc(F)cc3)n2)NC(=O)NC1=O (racemic) | 16000 | 42 |
| O=C1NC(=O)C(CNC(=O)c2cnn(-c3ccc(F)cc3)n2)(c2cccnc2)N1 (racemic) | 4500 | 30 |
| O=C1NC(=O)C(CNC(=O)c2cnn(-c3ccc(F)cc3F)n2)(c2nccs2)N1 (racemic) | 6600 | 87 |
| CCCC1(CNC(=O)c2cnn(-c3ccc(F)cc3)n2)NC(=O)NC1=O (racemic) | 19000 | 170 |
| O=C1NC(=O)C(CNC(=O)c2cnn(-c3ccc(F)cc3)n2)(c2ncccc2C(F)(F)F)N1 (racemic) | 15000 | 59 |
| O=C1NC(=O)C(CNC(=O)c2cnn(-c3ccc(F)cc3)n2)(c2ncsc2C2CC2)N1 (racemic) | 460 | 8 |
| CC(C)(C)C1(CNC(=O)c2cnn(-c3ccccc3)c2)NC(=O)NC1=O (racemic) | 5600 | 550 |
| O=C1NC(=O)C(CNC(=O)c2cnn(-c3ccc(F)cc3)n2)(C2CC(F)(F)C2)N1 (racemic) | > 50000 | 220 |
| Cc1ncsc1C1(CNC(=O)c2cnn(-c3ccc(F)cc3)n2)NC(=O)NC1=O (racemic) | 2500 | 37 |
| Cn1nccc1C1(CNC(=O)c2cnn(-c3ccc(F)cc3)n2)NC(=O)NC1=O (racemic) | 2400 | 10 |
| O=C1NC(=O)C(CNC(=O)c2cnn(-c3ccc(F)cc3)n2)(c2ccncc2)N1 (racemic) | 2900 | 140 |
| CCCC1(CNC(=O)c2cnn(-c3ccccc3)n2)NC(=O)NC1=O (racemic) | 19000 | 240 |
| O=C1NC(=O)C(CNC(=O)c2cnn(-c3ccccc3)n2)(CC2CC2)N1 (racemic) | 25000 | 670 |
| O=C1NC(=O)C(CNC(=O)c2cnn(-c3ccccc3)n2)(C2CCOC2)N1 (racemic) | 22000 | 170 |
| O=C1NC(=O)C(CNC(=O)c2cnn(-c3ccc(F)cc3)n2)(C2(F)CC2)N1 (racemic) | 7900 | 190 |
| O=C1NC(=O)C(CNC(=O)c2cnn(-c3ccc(F)cc3)n2)(C2CCC2)N1 (single isomer, unassigned) | 4380 | 24 |
| O=C1NC(=O)C(CNC(=O)c2cnn(-c3ccc(F)cc3)n2)(c2ccnn2C(F)F)N1 (single isomer, unassigned; atropisomer) | 1700 | 18 |
| O=C1NC(=O)C(CNC(=O)c2cnn(-c3ccccc3)n2)(c2ccccn2)N1 (stereo in doubt) | 2800 | 10 |
| CC(C)(C)C1(CNC(=O)c2cnn(-c3ccc(F)cc3)n2)NC(=O)NC1=O (stereo in doubt) | 2200 | 79 |
